{"source": "ChEMBL document CHEMBL5154671", "about": "(Eur J Med Chem, 2022)", "key": {"[1]": {"molecular_target": "Free fatty acid receptor 1 (Homo sapiens, UniProt O14842)", "sequence (O14842 whole entry)": "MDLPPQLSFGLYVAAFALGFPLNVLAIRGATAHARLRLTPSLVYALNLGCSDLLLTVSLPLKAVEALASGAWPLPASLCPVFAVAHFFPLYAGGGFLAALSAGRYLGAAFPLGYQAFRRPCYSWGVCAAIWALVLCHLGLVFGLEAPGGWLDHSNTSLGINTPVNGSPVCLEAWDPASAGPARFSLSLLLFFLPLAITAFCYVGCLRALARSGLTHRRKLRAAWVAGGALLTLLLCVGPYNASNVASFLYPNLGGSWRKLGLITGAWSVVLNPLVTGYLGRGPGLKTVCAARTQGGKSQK", "assay": "Agonist activity at human FFA1 expressed in CHO cells measured by FLIPR assay", "format": "functional, cell-based"}, "[2]": {"molecular_target": "T1, Peroxisome proliferator-activated receptor gamma (Homo sapiens, UniProt P37231)", "T1 sequence (P37231 whole entry)": "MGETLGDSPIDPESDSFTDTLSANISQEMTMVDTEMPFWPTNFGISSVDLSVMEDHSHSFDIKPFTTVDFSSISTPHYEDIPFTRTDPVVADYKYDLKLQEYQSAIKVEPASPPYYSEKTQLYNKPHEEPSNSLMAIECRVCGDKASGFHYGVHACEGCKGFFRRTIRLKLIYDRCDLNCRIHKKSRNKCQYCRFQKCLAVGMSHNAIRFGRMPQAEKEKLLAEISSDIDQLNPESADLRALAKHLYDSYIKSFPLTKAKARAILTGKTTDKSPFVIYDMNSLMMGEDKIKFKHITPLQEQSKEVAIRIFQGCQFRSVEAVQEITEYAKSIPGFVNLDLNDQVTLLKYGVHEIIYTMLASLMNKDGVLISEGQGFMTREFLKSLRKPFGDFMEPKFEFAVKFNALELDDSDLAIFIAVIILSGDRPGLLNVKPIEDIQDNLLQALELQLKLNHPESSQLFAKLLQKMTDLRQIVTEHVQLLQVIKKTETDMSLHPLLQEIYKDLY", "assay": "Agonist activity at human PPARgamma measured by dual luciferase reporter gene assay"}, "[3]": {"molecular_target": "T2, Peroxisome proliferator-activated receptor delta (Homo sapiens, UniProt Q03181)", "T2 sequence (Q03181 whole entry)": "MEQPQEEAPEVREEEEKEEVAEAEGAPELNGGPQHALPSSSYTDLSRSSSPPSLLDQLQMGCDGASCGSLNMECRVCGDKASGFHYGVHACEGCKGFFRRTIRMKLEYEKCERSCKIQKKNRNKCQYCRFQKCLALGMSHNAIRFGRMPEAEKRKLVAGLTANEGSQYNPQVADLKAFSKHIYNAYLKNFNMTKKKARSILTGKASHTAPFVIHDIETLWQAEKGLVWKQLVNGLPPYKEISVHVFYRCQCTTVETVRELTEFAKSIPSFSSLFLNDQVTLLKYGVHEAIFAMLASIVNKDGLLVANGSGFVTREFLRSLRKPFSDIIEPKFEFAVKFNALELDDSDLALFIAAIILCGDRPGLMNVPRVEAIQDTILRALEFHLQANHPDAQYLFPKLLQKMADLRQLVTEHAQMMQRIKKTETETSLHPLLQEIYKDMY", "assay": "Agonist activity at human PPARdelta measured by dual luciferase reporter gene assay"}, "[4]": {"tested_on": "Mus musculus", "assay": "Hypolipidemic activity in Triton1339W-induced hyperlipidemic ICR mouse model assessed as reduction in plasma TG level at 80 mg/kg, administered once daily for 5 days", "format": "functional, organism-based", "conditions": "time 5.0 day"}, "[5]": {"tested_on": "Mus musculus", "assay": "Hypolipidemic activity in Triton1339W-induced hyperlipidemic ICR mouse model assessed as reduction in plasma TC level at 80 mg/kg, administered once daily for 5 days", "format": "functional, organism-based", "conditions": "time 5.0 day"}, "[6]": {"assay": "Clearance in rat liver microsomes in presence of NADPH measured by LC/MS analysis", "format": "ADME, Microsome", "conditions": "read-out: CLH"}, "[7]": {"assay": "Half-life in rat liver microsomes in presence of NADPH measured by LC/MS analysis", "format": "ADME, Microsome"}, "[8]": {"tested_on": "Mus musculus", "assay": "Anti-NASH activity in high-fat/high-sugar diet and CCl4-induced nonalcoholic steatohepatitis male C57BL/6 mouse assessed as decrease in serum TG level at 100 mg/kg, po administered for 4 weeks", "format": "functional, organism-based"}, "[9]": {"tested_on": "Mus musculus", "assay": "Anti-NASH activity in high-fat/high-sugar diet and CCl4-induced nonalcoholic steatohepatitis male C57BL/6 mouse assessed as decrease in hepatic TG level at 100 mg/kg, po administered for 4 weeks", "format": "functional, organism-based"}, "[10]": {"tested_on": "Mus musculus", "assay": "Anti-NASH activity in high-fat/high-sugar diet and CCl4-induced nonalcoholic steatohepatitis male C57BL/6 mouse assessed as decrease in liver non-esterified fatty acid contents at 100 mg/kg, po administered for 4 weeks", "format": "functional, organism-based"}, "[11]": {"tested_on": "Mus musculus", "assay": "Anti-NASH activity in high-fat/high-sugar diet and CCl4-induced nonalcoholic steatohepatitis male C57BL/6 mouse assessed as decrease in disease activity score at 100 mg/kg, po administered for 4 weeks", "format": "functional, organism-based"}, "[12]": {"tested_on": "Mus musculus", "assay": "Anti-NASH activity in high-fat/high-sugar diet and CCl4-induced nonalcoholic steatohepatitis male C57BL/6 mouse assessed as decrease in hepatocyte ballooning score at 100 mg/kg, po administered for 4 weeks", "format": "functional, organism-based"}, "[13]": {"tested_on": "Mus musculus", "assay": "Protection against liver fibrosis in high-fat/high-sugar diet and CCl4-induced nonalcoholic steatohepatitis male C57BL/6 mouse assessed as decrease in collagen area at 100 mg/kg, po administered for 4 weeks", "format": "functional, organism-based"}, "[14]": {"tested_on": "Mus musculus", "assay": "Protection against liver fibrosis in high-fat/high-sugar diet and CCl4-induced nonalcoholic steatohepatitis male C57BL/6 mouse assessed as decrease in alpha-SMA expression in liver at 100 mg/kg, po administered for 4 weeks", "format": "functional, organism-based"}, "[15]": {"tested_on": "Mus musculus", "assay": "Anti-NASH activity in high-fat/high-sugar diet and CCl4-induced nonalcoholic steatohepatitis male C57BL/6 mouse assessed as decrease in ACC mRNA expression at 100 mg/kg, po administered for 4 weeks", "format": "functional, organism-based"}, "[16]": {"tested_on": "Mus musculus", "assay": "Anti-inflammatory activity in high-fat/high-sugar diet and CCl4-induced nonalcoholic steatohepatitis male C57BL/6 mouse assessed as decrease in TNF-alpha mRNA expression at 100 mg/kg, po administered for 4 weeks", "format": "functional, organism-based"}, "[17]": {"tested_on": "Mus musculus", "assay": "Anti-inflammatory activity in high-fat/high-sugar diet and CCl4-induced nonalcoholic steatohepatitis male C57BL/6 mouse assessed as decrease in IL-6 mRNA expression at 100 mg/kg, po administered for 4 weeks", "format": "functional, organism-based"}, "[18]": {"tested_on": "Mus musculus", "assay": "Anti-inflammatory activity in high-fat/high-sugar diet and CCl4-induced nonalcoholic steatohepatitis male C57BL/6 mouse assessed as decrease in IL-1beta mRNA expression at 100 mg/kg, po administered for 4 weeks", "format": "functional, organism-based"}, "[19]": {"tested_on": "Mus musculus", "assay": "Anti-fibrotic activity in high-fat/high-sugar diet and CCl4-induced nonalcoholic steatohepatitis male C57BL/6 mouse assessed as decrease in TIMP-1 mRNA expression at 100 mg/kg, po administered for 4 weeks", "format": "functional, organism-based"}, "[20]": {"tested_on": "Mus musculus", "assay": "Anti-fibrotic activity in high-fat/high-sugar diet and CCl4-induced nonalcoholic steatohepatitis male C57BL/6 mouse assessed as decrease in COL1A1 mRNA expression at 100 mg/kg, po administered for 4 weeks", "format": "functional, organism-based"}, "[21]": {"tested_on": "Mus musculus", "assay": "Protection against CCl4-induced liver fibrosis in male C57BL/6 mouse assessed as decrease in collagen area in liver at 100 mg/kg measured by masson staining", "format": "functional, organism-based"}, "[22]": {"assay": "Acute toxicity in ICR mouse assessed as change in serum ALB level at 500 mg/kg, IG", "format": "organism-based", "conditions": "in vivo, po"}, "[23]": {"assay": "Acute toxicity in ICR mouse assessed as change in serum AST level at 500 mg/kg, IG", "format": "organism-based", "conditions": "in vivo, po"}, "[24]": {"assay": "Acute toxicity in ICR mouse assessed as change in serum TBIL level at 500 mg/kg, IG", "format": "organism-based", "conditions": "in vivo, po"}, "[25]": {"assay": "Acute toxicity in ICR mouse assessed as change in serum DBIL level at 500 mg/kg, IG", "format": "organism-based", "conditions": "in vivo, po"}, "[26]": {"assay": "Acute toxicity in ICR mouse assessed as change in serum creatinine level at 500 mg/kg, IG", "format": "organism-based", "conditions": "in vivo, po"}, "[27]": {"assay": "Acute toxicity in ICR mouse assessed as change in serum CKMB level at 500 mg/kg, IG", "format": "organism-based", "conditions": "in vivo, po"}}, "note": "Activity calls are given as the source filed them. The rule behind the calls is not given here.", "data": [{"smiles": "COc1ccc(/C=C/c2cc(OC)cc(OCc3ccc(OCC(=O)O)c(F)c3)c2)cc1", "values": [{"measurement": "EC50", "setting": "[1]", "result": 1.5, "unit": "µM"}, {"measurement": "EC50", "setting": "[2]", "result": 28.5, "unit": "µM"}, {"measurement": "EC50", "setting": "[3]", "result": 4.8, "unit": "µM"}, {"measurement": "Activity", "setting": "[4]", "result": "Active"}, {"measurement": "Activity", "setting": "[5]", "result": "Active"}, {"measurement": "microsomal CLint", "setting": "[6]", "result": 27.1, "unit": "µL/min/mg"}, {"measurement": "half-life", "setting": "[7]", "result": 51.2, "unit": "min"}, {"measurement": "Activity", "setting": "[8]", "result": "Active"}, {"measurement": "Activity", "setting": "[9]", "result": "Active"}, {"measurement": "Activity", "setting": "[10]", "result": "Active"}, {"measurement": "Activity", "setting": "[11]", "result": "Active"}, {"measurement": "Activity", "setting": "[12]", "result": "Active"}, {"measurement": "Activity", "setting": "[13]", "result": "Active"}, {"measurement": "Activity", "setting": "[14]", "result": "Active"}, {"measurement": "Activity", "setting": "[15]", "result": "Active"}, {"measurement": "Activity", "setting": "[16]", "result": "Active"}, {"measurement": "Activity", "setting": "[17]", "result": "Active"}, {"measurement": "Activity", "setting": "[18]", "result": "Active"}, {"measurement": "Activity", "setting": "[19]", "result": "Active"}, {"measurement": "Activity", "setting": "[20]", "result": "Active"}, {"measurement": "Activity", "setting": "[21]", "result": "Active"}, {"measurement": "Activity", "setting": "[22]", "result": "Non-Toxic"}, {"measurement": "Activity", "setting": "[23]", "result": "Non-Toxic"}, {"measurement": "Activity", "setting": "[24]", "result": "Non-Toxic"}, {"measurement": "Activity", "setting": "[25]", "result": "Non-Toxic"}, {"measurement": "Activity", "setting": "[26]", "result": "Non-Toxic"}, {"measurement": "Activity", "setting": "[27]", "result": "Non-Toxic"}]}]}
